In data set [1] the test system is SARS-CoV-2 replicon. It is filed as cell-based. The settings on record: read-out: EC50 SARS-CoV-2 replicon assay.
The subject of the next data set is CRFK cells. The note with it: cat.
Data set [2] relates to SARS-CoV-2 replicon. The settings on record: read-out: EC50 SARS-CoV-2 replicon assay, previously reported; cited from earlier work.
The target of a further data set is SARS-CoV-2 3CL^pro (Severe acute respiratory syndrome coronavirus 2, UniProt P0DTD1). In words: biochemical. It is filed as biochemical.
The target in another data set is MERS-CoV 3CL^pro (Middle East respiratory syndrome-related coronavirus, UniProt K9N7C7). The data set is described as follows: biochemical.
Chain of MERS-CoV 3CL^pro (K9N7C7 3248-3553 limits assumed): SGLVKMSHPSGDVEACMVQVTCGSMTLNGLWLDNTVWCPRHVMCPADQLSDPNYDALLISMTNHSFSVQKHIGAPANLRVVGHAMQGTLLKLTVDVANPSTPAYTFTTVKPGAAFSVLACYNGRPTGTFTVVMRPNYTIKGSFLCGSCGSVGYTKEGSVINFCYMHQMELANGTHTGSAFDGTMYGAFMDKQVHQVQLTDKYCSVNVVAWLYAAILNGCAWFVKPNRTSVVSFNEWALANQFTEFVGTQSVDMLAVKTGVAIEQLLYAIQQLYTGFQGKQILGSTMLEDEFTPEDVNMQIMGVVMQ
Another data set is described as follows: in vitro. The settings on record: cat.
Data set [3] has as its system entry of SARS-CoV-2 (pseudotyped lentivirus with S). In words: organism not typed. It is filed as cell-based. The note with it: read-out: EC50 inhibition of SARS-CoV-2 entry.

Like-named read-outs stand apart in the source and are kept apart here. Bounds are passed on as bounds.

With GC376, the figures for the EC50 in the data set on SARS-CoV-2 replicon [1] and in the data set on SARS-CoV-2 replicon [2] were 27 ± 10 nM and 20 nM, respectively. This compound displayed a CC50 with CRFK cells of over 100000 nM.

Regarding `CC(C)C[C@H](NC(=O)OC1CC2(CCN(C(=O)Cc3ccccc3)CC2)C1)C(=O)N[C@@H](C[C@H]1CCNC1=O)C(O)S(=O)(=O)O` (stereo partly drawn) [Compound 9c, Sodium (2S)-1-hydroxy-2-((S)-4-methyl-2-((((7-(2-phenylacetyl)-7-azaspiro[3.5]nonan-2-yl)oxy)carbonyl)amino)pentanamido)-3-((R)-2-oxopyrrolidin-3-yl)propane-1-sulfonate], the IC50 against SARS-CoV-2 3CL^pro was 290 ± 60 nM; on MERS-CoV 3CL^pro, 610 ± 130 nM. Besides, in the data set “in vitro”, the CC50 was over 100000 nM.

In the case of `CC(C)C[C@H](NC(=O)OC1(C)CN(C(=O)OC(C)(C)C)C1)C(=O)N[C@@H](C[C@H]1CCNC1=O)C(O)S(=O)(=O)O` (stereo partly drawn) [Compound 13c, Sodium (2S)-2-((S)-2-((((1-(tert-butoxycarbonyl)-3-methylazetidin-3-yl)oxy)carbonyl)amino)-4-methylpentanamido)-1-hydroxy-3-((R)-2-oxopyrrolidin-3-yl)propane-1-sulfonate], the half-maximal inhibitory concentration (IC50) at SARS-CoV-2 3CL^pro was found to be 2500 ± 570 nM; against MERS-CoV 3CL^pro, 4300 ± 280 nM. Further, in “in vitro”, the CC50 is over 100000 nM.

Regarding `CC(C)C[C@H](NC(=O)OC1CC2(C1)CN(C(=O)C(C)C)C2)C(=O)N[C@@H](C[C@H]1CCNC1=O)C(O)S(=O)(=O)O` (stereo partly drawn) [Compound 2c, Sodium (2S)-1-hydroxy-2-((S)-2-((((2-isobutyryl-2-azaspiro[3.3]heptan-6-yl)oxy)carbonyl)amino)-4-methylpentanamido)-3-((R)-2-oxopyrrolidin-3-yl)propane-1-sulfonate], the IC50 was determined as 650 ± 70 nM against SARS-CoV-2 3CL^pro and 550 ± 70 nM on MERS-CoV 3CL^pro. This compound also registered a CC50 in the data set “in vitro” of over 100000 nM.

For `CC(C)C[C@H](NC(=O)OC1CC2(CCN(C#N)CC2)C1)C(=O)N[C@@H](C[C@H]1CCNC1=O)C(O)S(=O)(=O)O` (stereo partly drawn) [Compound 11c, Sodium (2S)-2-((S)-2-((((7-cyano-7-azaspiro[3.5]nonan-2-yl)oxy)carbonyl)amino)-4-methylpentanamido)-1-hydroxy-3-((R)-2-oxopyrrolidin-3-yl)propane-1-sulfonate], the IC50 on SARS-CoV-2 3CL^pro was determined as 390 ± 30 nM; on MERS-CoV 3CL^pro, 630 ± 180 nM. Also, the CC50 in the data set “in vitro” was over 100000 nM.

On to `CC(C)C[C@H](NC(=O)OCC1CN(C(=O)OC(C)(C)C)C1)C(=O)N[C@@H](C[C@H]1CCNC1=O)C(O)S(=O)(=O)[O-].[Na+]` (stereo partly drawn) [Compound 14c, Sodium (2S)-2-((S)-2-((((1-(tert-butoxycarbonyl)azetidin-3-yl)methoxy)carbonyl)amino)-4-methylpentanamido)-1-hydroxy-3-((R)-2-oxopyrrolidin-3-yl)propane-1-sulfonate], for which, on SARS-CoV-2 3CL^pro, the IC50 came to 500 ± 140 nM and the “fold better IC50 than the 12b/12c pair” value is on record as over 6 fold. The compound also gave a concentration for half-maximal inhibition (IC50) on MERS-CoV 3CL^pro of 440 ± 60 nM. Also, the EC50 in data set [3] was in the range of 2000 to 10000 nM. In addition, the CC50 in “in vitro” is over 100000 nM.

Consider `CC(C)C[C@H](NC(=O)OC1CC2(CCN(C(=O)OC(C)(C)C)CC2)C1)C(=O)N[C@H](C=O)C[C@H]1CCNC1=O` [Compound 7b, tert-Butyl 2-((((S)-4-methyl-1-oxo-1-(((S)-1-oxo-3-((R)-2-oxopyrrolidin-3-yl)propan-2-yl)amino)pentan-2-yl)carbamoyl)oxy)-7-azaspiro[3.5]nonane-7-carboxylate], for which, on SARS-CoV-2 3CL^pro, the “fold lower IC50 than compound 1b” value is given as over 9 fold. Moreover, in data set [3], the EC50 was in the range of 2000 to 10000 nM. In the data set “in vitro”, this compound gave a CC50 of over 100000 nM.

For `CC(C)C[C@H](NC(=O)OC1CC2(C1)CN(S(C)(=O)=O)C2)C(=O)N[C@@H](C[C@H]1CCNC1=O)C(O)S(=O)(=O)O` (stereo partly drawn) [Compound 4c, Sodium (2S)-1-hydroxy-2-((S)-4-methyl-2-((((2-(methylsulfonyl)-2-azaspiro[3.3]heptan-6-yl)oxy)carbonyl)amino)pentanamido)-3-((R)-2-oxopyrrolidin-3-yl)propane-1-sulfonate], the IC50 at SARS-CoV-2 3CL^pro came to 760 ± 80 nM; against MERS-CoV 3CL^pro, 160 ± 10 nM. In “in vitro”, the CC50 is over 100000 nM.

In the case of `[2H]C([2H])(OC(=O)N[C@@H](CC(C)C)C(=O)N[C@@H](C[C@H]1CCNC1=O)C(O)S(=O)(=O)[O-])C1CN(C(=O)OC(C)(C)C)C1.[Na+]` (stereo partly drawn) [Compound 18c, Sodium (2S)-2-((S)-2-((((1-(tert-butoxycarbonyl)azetidin-3-yl)methoxy-d2)carbonyl)amino)-4-methylpentanamido)-1-hydroxy-3-((R)-2-oxopyrrolidin-3-yl)propane-1-sulfonate], the half-maximal inhibitory concentration (IC50) on SARS-CoV-2 3CL^pro was found to be 340 ± 10 nM; against MERS-CoV 3CL^pro, 370 ± 60 nM. In the data set “in vitro”, the CC50 was over 100000 nM.

Turning to `CC(C)C[C@H](NC(=O)OC1CC2(CCN(S(C)(=O)=O)CC2)C1)C(=O)N[C@@H](C[C@H]1CCNC1=O)C(O)S(=O)(=O)O` (stereo partly drawn) [Compound 10c, Sodium (2S)-1-hydroxy-2-((S)-4-methyl-2-((((7-(methylsulfonyl)-7-azaspiro[3.5]nonan-2-yl)oxy)carbonyl)amino)pentanamido)-3-((R)-2-oxopyrrolidin-3-yl)propane-1-sulfonate], the figures for the IC50 against SARS-CoV-2 3CL^pro and on MERS-CoV 3CL^pro were 240 ± 30 nM and 330 ± 40 nM, respectively. This compound also displayed a CC50 in the data set “in vitro” of over 100000 nM.

In the case of `CC(C)C[C@H](NC(=O)OCC1CN(C(=O)Cc2ccccc2)C1)C(=O)N[C@@H](C[C@H]1CCNC1=O)C(O)S(=O)(=O)O` (stereo partly drawn) [Compound 15c, Sodium (2S)-1-hydroxy-2-((S)-4-methyl-2-((((1-(2-phenylacetyl)azetidin-3-yl)methoxy)carbonyl)amino)pentanamido)-3-((R)-2-oxopyrrolidin-3-yl)propane-1-sulfonate], the half-maximal inhibitory concentration (IC50) was 760 ± 80 nM at SARS-CoV-2 3CL^pro and 180 ± 10 nM against MERS-CoV 3CL^pro. In “in vitro”, this compound gave a CC50 of over 100000 nM.

Take `CC(C)C[C@H](NC(=O)OC1CC2(CCN(C(=O)OC(C)(C)C)CC2)C1)C(=O)N[C@@H](C[C@H]1CCNC1=O)C(O)S(=O)(=O)O` (stereo partly drawn) [Compound 7c, Sodium (2S)-2-((S)-2-((((7-(tert-butoxycarbonyl)-7-azaspiro[3.5]nonan-2-yl)oxy)carbonyl)amino)-4-methylpentanamido)-1-hydroxy-3-((R)-2-oxopyrrolidin-3-yl)propane-1-sulfonate]: the figures for the IC50 against SARS-CoV-2 3CL^pro and against MERS-CoV 3CL^pro were 290 ± 20 nM and 950 ± 210 nM, respectively. Further, the EC50 in data set [3] lay in the range of 2000 to 10000 nM. The compound also had a CC50 in “in vitro” of over 100000 nM.

`CC(C)C[C@H](NC(=O)OC1CCC2(C1)CN(C(=O)OC(C)(C)C)C2)C(=O)N[C@@H](C[C@H]1CCNC1=O)C(O)S(=O)(=O)O` (stereo partly drawn) [Compound 6c, Sodium (2S)-2-((2S)-2-((((2-(tert-butoxycarbonyl)-2-azaspiro[3.4]octan-6-yl)oxy)carbonyl)amino)-4-methylpentanamido)-1-hydroxy-3-((R)-2-oxopyrrolidin-3-yl)propane-1-sulfonate]: the IC50 was found to be 1200 ± 140 nM on SARS-CoV-2 3CL^pro and 1300 ± 140 nM on MERS-CoV 3CL^pro. This compound gave a CC50 in the data set “in vitro” of over 100000 nM.

With `CC(C)C[C@H](NC(=O)OC1CN(C(=O)OC(C)(C)C)C1)C(=O)N[C@@H](C[C@H]1CCNC1=O)C(O)S(=O)(=O)O` (stereo partly drawn) [Compound 12c, Sodium (2S)-2-((S)-2-((((1-(tert-butoxycarbonyl)azetidin-3-yl)oxy)carbonyl)amino)-4-methylpentanamido)-1-hydroxy-3-((R)-2-oxopyrrolidin-3-yl)propane-1-sulfonate], the IC50 at SARS-CoV-2 3CL^pro is 3050 ± 350 nM; on MERS-CoV 3CL^pro, 2550 ± 920 nM. In “in vitro”, this compound gave a CC50 of over 100000 nM.

With `CC(C)C[C@H](NC(=O)OCC1CN(C(=O)OC(C)(C)C)C1)C(=O)N[C@H](C=O)C[C@H]1CCNC1=O` [Compound 14b, tert-Butyl 3-(((((S)-4-methyl-1-oxo-1-(((S)-1-oxo-3-((R)-2-oxopyrrolidin-3-yl)propan-2-yl)amino)pentan-2-yl)carbamoyl)oxy)methyl)azetidine-1-carboxylate], on SARS-CoV-2 3CL^pro, the “fold better IC50 than the 12b/12c pair” value is given as over 6 fold and the “fold more potent than 17b” value worked out at 12 fold. Also, the EC50 in data set [3] fell in the range of 2000 to 10000 nM. This compound also came in with a CC50 in the data set “in vitro” of over 100000 nM.

The values above are taken from paper PMC9172056 (Journal of medicinal chemistry, 2022).
